Bridge positions count the residues as written; N and C are the ends. Square brackets hold non-standard residues; d marks the D form. Peptide text beside a SMILES is read from it. * marks the point of attachment. Bip = N[C@@H](Cc1ccc(-c2ccccc2)cc1)C(=O)O; Phe(3-Me) = Cc1cccc(C[C@H](N)C(=O)O)c1; Cha = N[C@@H](CC1CCCCC1)C(=O)O; Cit = NC(=O)NCCC[C@H](N)C(=O)O; Carboxymethyl = O=C(O)C*; Orn = NCCC[C@H](N)C(=O)O; Aun = NCCCCCCCCCCC(=O)O; Dab = NCC[C@H](N)C(=O)O; Dap = NC[C@H](N)C(=O)O
Molecular target: T1, PD-1/PD-L1 interaction (PE-labeled human PD-L1-Ig binding to Jurkat cell line over-expressing human PD-1) (Homo sapiens, UniProt Q15116)
T1 construct: expressed in transfected cells; host or cells: Jurkat
Test: Jurkat-PD-1 Cell Binding High-Content Screening Assay (CBA)
Assay type: cell-based
Conditions: Jurkat cell line over-expressing human PD-1; PE-labeled PD-L1-Ig 20 nM final; read-out: Jurkat hPD1-PDL1 IC50
Procedure, shortened: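 Human PD-L1-Ig carrying a covalent PE label on its Ig tag serves as the probe, applied at 20 nM final to compound-treated (2 h, 37° C) Jurkat-hPD-1 cells in medium with 10% fetal calf serum. After one hour, fixation and nuclear staining precede high-content image analysis.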

T1 sequence (Q15116 25-288): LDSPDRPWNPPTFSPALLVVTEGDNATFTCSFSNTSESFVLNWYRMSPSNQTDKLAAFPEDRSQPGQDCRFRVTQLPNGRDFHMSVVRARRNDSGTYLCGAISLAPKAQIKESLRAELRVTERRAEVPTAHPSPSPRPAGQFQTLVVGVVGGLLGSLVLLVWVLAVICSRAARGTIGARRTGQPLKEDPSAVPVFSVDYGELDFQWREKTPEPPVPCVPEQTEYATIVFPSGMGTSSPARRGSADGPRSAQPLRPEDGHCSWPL

SMILES | IC50
Cc1cccc(C[C@@H]2NC(=O)[C@H](CC(=O)O)NC(=O)[C@H](Cc3ccc(OCC(=O)O)cc3)NC(=O)[C@H](Cc3ccc(OCC(=O)O)cc3)NC(=O)CSC[C@@H](C(=O)NCC(=O)N[C@@H](CCCCN)C(=O)NCCCCCCCCCCC(=O)O)NC(=O)[C@H](CO)NC(=O)[C@H](C(C)C)NC(=O)[C@H](CC3CCCCC3)NC(=O)[C@H](CCN)NC(=O)[C@@H](CC(C)C)NC(=O)[C@H](CCCN)NC(=O)[C@H](C(C)C)NC(=O)[C@H](Cc3ccc(-c4ccccc4)cc3)NC(=O)[C@H](CC(C)C)NC2=O)c1 [Compound 1069] ({CH2CO}-Y(Carboxymethyl)Y(Carboxymethyl)D[Phe(3-Me)]L[Bip]V[Orn][dL][Dab][Cha]VSCGK[Aun]-OH; thioether N-14) | 0.0417 µM
Cc1cccc(C[C@@H]2NC(=O)[C@H](CC(=O)O)NC(=O)[C@H](Cc3ccc(OCC(=O)O)cc3)NC(=O)[C@H](CN)NC(=O)CSC[C@@H](C(=O)N[C@@H](C)C(=O)N[C@@H](CCCCN)C(=O)NCCCCCCCCCCC(=O)O)NC(=O)[C@H]([C@@H](C)O)NC(=O)[C@H](C(C)C)NC(=O)[C@H](CC3CCCCC3)NC(=O)[C@H](CCN)NC(=O)[C@@H](CC(C)C)NC(=O)[C@H](CCCN)NC(=O)[C@H](CCCNC(N)=O)NC(=O)[C@H](Cc3ccc(-c4ccccc4)cc3)NC(=O)[C@H](C(C)C)NC2=O)c1 [Compound 1070] ({CH2CO}-[Dap]Y(Carboxymethyl)D[Phe(3-Me)]V[Bip][Cit][Orn][dL][Dab][Cha]VTCAK[Aun]-OH; thioether N-14) | 0.0104 µM
Cc1cccc(C[C@@H]2NC(=O)[C@H](CC(=O)O)NC(=O)[C@H](Cc3ccc(OCC(=O)O)cc3)NC(=O)[C@H](Cc3ccc(OCC(=O)O)cc3)NC(=O)CSC[C@@H](C(=O)NCC(=O)N[C@@H](CCCN)C(=O)NCCCCCCCCCCC(=O)O)NC(=O)[C@H](CO)NC(=O)[C@H](C(C)C)NC(=O)[C@H](CC3CCCCC3)NC(=O)[C@H](CCN)NC(=O)[C@@H](CC(C)C)NC(=O)[C@H](CCCN)NC(=O)[C@H](C(C)C)NC(=O)[C@H](Cc3ccc(-c4ccccc4)cc3)NC(=O)[C@H](CC(C)C)NC2=O)c1 [Compound 1071] ({CH2CO}-Y(Carboxymethyl)Y(Carboxymethyl)D[Phe(3-Me)]L[Bip]V[Orn][dL][Dab][Cha]VSCG[Orn][Aun]-OH; thioether N-14) | 0.0425 µM
Cc1cccc(C[C@@H]2NC(=O)[C@H](CC(=O)O)NC(=O)[C@H](Cc3ccc(OCC(=O)O)cc3)NC(=O)[C@H](CN)NC(=O)CSC[C@@H](C(=O)N[C@@H](C)C(=O)N[C@@H](CCCN)C(=O)NCCCCCCCCCCC(=O)O)NC(=O)[C@H]([C@@H](C)O)NC(=O)[C@H](C(C)C)NC(=O)[C@H](CC3CCCCC3)NC(=O)[C@H](CCN)NC(=O)[C@@H](CC(C)C)NC(=O)[C@H](CCCN)NC(=O)[C@H](CCCNC(N)=O)NC(=O)[C@H](Cc3ccc(-c4ccccc4)cc3)NC(=O)[C@H](C(C)C)NC2=O)c1 [Compound 1072] ({CH2CO}-[Dap]Y(Carboxymethyl)D[Phe(3-Me)]V[Bip][Cit][Orn][dL][Dab][Cha]VTCA[Orn][Aun]-OH; thioether N-14) | 0.0142 µM
Cc1cccc(C[C@@H]2NC(=O)[C@H](CC(=O)O)NC(=O)[C@H](Cc3ccc(OCC(=O)O)cc3)NC(=O)[C@H](Cc3ccc(OCC(=O)O)cc3)NC(=O)CSC[C@@H](C(=O)NCC(=O)N[C@@H](CCCCN)C(=O)NCC(=O)NCCCCCCCCCCC(=O)O)NC(=O)[C@H](CO)NC(=O)[C@H](C(C)C)NC(=O)[C@H](CC3CCCCC3)NC(=O)[C@H](CCN)NC(=O)[C@@H](CC(C)C)NC(=O)[C@H](CCCN)NC(=O)[C@H](C(C)C)NC(=O)[C@H](Cc3ccc(-c4ccccc4)cc3)NC(=O)[C@H](CC(C)C)NC2=O)c1 [Compound 1073] ({CH2CO}-Y(Carboxymethyl)Y(Carboxymethyl)D[Phe(3-Me)]L[Bip]V[Orn][dL][Dab][Cha]VSCGKG[Aun]-OH; thioether N-14) | 0.0152 µM
CC(C)C[C@H]1NC(=O)[C@H](CCCN)NC(=O)[C@H](C(C)C)NC(=O)[C@H](Cc2ccc(-c3ccccc3)cc2)NC(=O)[C@H](C(C)C)NC(=O)[C@H](Cc2c[nH]c3ccccc23)NC(=O)[C@H](CC(=O)O)NC(=O)[C@H](Cc2ccc(OCC(=O)O)cc2)NC(=O)[C@H](CN)NC(=O)CSC[C@@H](C(=O)N[C@@H](CN)C(=O)NCCCCCCCCCCC(=O)O)NC(=O)[C@H]([C@@H](C)O)NC(=O)[C@H](C(C)C)NC(=O)[C@H](CC2CCCCC2)NC(=O)[C@H](Cc2c[nH]cn2)NC1=O [Compound 1074] ({CH2CO}-[Dap]Y(Carboxymethyl)DWV[Bip]V[Orn][dL]H[Cha]VTC[Dap][Aun]-OH; thioether N-14) | 0.0695 µM
CC(C)C[C@H]1NC(=O)[C@H](CCCN)NC(=O)[C@H](C(C)C)NC(=O)[C@H](Cc2ccc(-c3ccccc3)cc2)NC(=O)[C@H](C(C)C)NC(=O)[C@H](Cc2c[nH]c3ccccc23)NC(=O)[C@H](CC(=O)O)NC(=O)[C@H](Cc2ccc(OCC(=O)O)cc2)NC(=O)[C@H](CN)NC(=O)CSC[C@@H](C(=O)N[C@@H](CCN)C(=O)NCCCCCCCCCCC(=O)O)NC(=O)[C@H]([C@@H](C)O)NC(=O)[C@H](C(C)C)NC(=O)[C@H](CC2CCCCC2)NC(=O)[C@H](Cc2c[nH]cn2)NC1=O [Compound 1075] ({CH2CO}-[Dap]Y(Carboxymethyl)DWV[Bip]V[Orn][dL]H[Cha]VTC[Dab][Aun]-OH; thioether N-14) | 0.0346 µM
CC(C)C[C@H]1NC(=O)[C@H](CCCN)NC(=O)[C@H](C(C)C)NC(=O)[C@H](Cc2ccc(-c3ccccc3)cc2)NC(=O)[C@H](C(C)C)NC(=O)[C@H](Cc2c[nH]c3ccccc23)NC(=O)[C@H](CC(=O)O)NC(=O)[C@H](Cc2ccc(OCC(=O)O)cc2)NC(=O)[C@H](CN)NC(=O)CSC[C@@H](C(=O)N[C@@H](CCCN)C(=O)NCCCCCCCCCCC(=O)O)NC(=O)[C@H]([C@@H](C)O)NC(=O)[C@H](C(C)C)NC(=O)[C@H](CC2CCCCC2)NC(=O)[C@H](Cc2c[nH]cn2)NC1=O [Compound 1076] ({CH2CO}-[Dap]Y(Carboxymethyl)DWV[Bip]V[Orn][dL]H[Cha]VTC[Orn][Aun]-OH; thioether N-14) | 0.0441 µM
CC(C)C[C@H]1NC(=O)[C@H](CCCN)NC(=O)[C@H](C(C)C)NC(=O)[C@H](Cc2ccc(-c3ccccc3)cc2)NC(=O)[C@H](C(C)C)NC(=O)[C@H](Cc2c[nH]c3ccccc23)NC(=O)[C@H](CC(=O)O)NC(=O)[C@H](Cc2ccc(OCC(=O)O)cc2)NC(=O)[C@H](CN)NC(=O)CSC[C@@H](C(=O)N[C@@H](CCCCN)C(=O)NCCCCCCCCCCC(=O)O)NC(=O)[C@H]([C@@H](C)O)NC(=O)[C@H](C(C)C)NC(=O)[C@H](CC2CCCCC2)NC(=O)[C@H](Cc2c[nH]cn2)NC1=O [Compound 1077] ({CH2CO}-[Dap]Y(Carboxymethyl)DWV[Bip]V[Orn][dL]H[Cha]VTCK[Aun]-OH; thioether N-14) | 0.0467 µM
CC(C)C[C@H]1NC(=O)[C@H](CCCN)NC(=O)[C@H](C(C)C)NC(=O)[C@H](Cc2ccc(-c3ccccc3)cc2)NC(=O)[C@H](C(C)C)NC(=O)[C@H](Cc2c[nH]c3ccccc23)NC(=O)[C@H](CC(=O)O)NC(=O)[C@H](Cc2ccc(OCC(=O)O)cc2)NC(=O)[C@H](CN)NC(=O)CSC[C@@H](C(=O)N[C@@H](CC(=O)O)C(=O)NCCCCCCCCCCC(=O)O)NC(=O)[C@H]([C@@H](C)O)NC(=O)[C@H](C(C)C)NC(=O)[C@H](CC2CCCCC2)NC(=O)[C@H](Cc2c[nH]cn2)NC1=O [Compound 1078] ({CH2CO}-[Dap]Y(Carboxymethyl)DWV[Bip]V[Orn][dL]H[Cha]VTCD[Aun]-OH; thioether N-14) | 0.0849 µM
CC(C)C[C@H]1NC(=O)[C@H](CCCN)NC(=O)[C@H](C(C)C)NC(=O)[C@H](Cc2ccc(-c3ccccc3)cc2)NC(=O)[C@H](C(C)C)NC(=O)[C@H](Cc2c[nH]c3ccccc23)NC(=O)[C@H](CC(=O)O)NC(=O)[C@H](Cc2ccc(OCC(=O)O)cc2)NC(=O)[C@H](CN)NC(=O)CSC[C@@H](C(=O)N[C@@H](CCC(=O)O)C(=O)NCCCCCCCCCCC(=O)O)NC(=O)[C@H]([C@@H](C)O)NC(=O)[C@H](C(C)C)NC(=O)[C@H](CC2CCCCC2)NC(=O)[C@H](Cc2c[nH]cn2)NC1=O [Compound 1079] ({CH2CO}-[Dap]Y(Carboxymethyl)DWV[Bip]V[Orn][dL]H[Cha]VTCE[Aun]-OH; thioether N-14) | 0.0556 µM
CC(C)C[C@H]1NC(=O)[C@H](CCCN)NC(=O)[C@H](C(C)C)NC(=O)[C@H](Cc2ccc(-c3ccccc3)cc2)NC(=O)[C@H](C(C)C)NC(=O)[C@H](Cc2c[nH]c3ccccc23)NC(=O)[C@H](CC(=O)O)NC(=O)[C@H](Cc2ccc(OCC(=O)O)cc2)NC(=O)[C@H](CN)NC(=O)CSC[C@@H](C(=O)N[C@@H](C)C(=O)N[C@@H](CCC(=O)O)C(=O)NCCCCCCCCCCC(=O)O)NC(=O)[C@H]([C@@H](C)O)NC(=O)[C@H](C(C)C)NC(=O)[C@H](CC2CCCCC2)NC(=O)[C@H](Cc2cnc[nH]2)NC1=O [Compound 1080] ({CH2CO}-[Dap]Y(Carboxymethyl)DWV[Bip]V[Orn][dL]H[Cha]VTCAE[Aun]-OH; thioether N-14) | 0.0357 µM
CC(C)C[C@H]1NC(=O)[C@H](CCCN)NC(=O)[C@H](C(C)C)NC(=O)[C@H](Cc2ccc(-c3ccccc3)cc2)NC(=O)[C@H](C(C)C)NC(=O)[C@H](Cc2c[nH]c3ccccc23)NC(=O)[C@H](CC(=O)O)NC(=O)[C@H](Cc2ccc(OCC(=O)O)cc2)NC(=O)[C@H](CN)NC(=O)CSC[C@@H](C(=O)N[C@@H](C)C(=O)N[C@@H](CN)C(=O)NCCCCCCCCCCC(=O)O)NC(=O)[C@H]([C@@H](C)O)NC(=O)[C@H](C(C)C)NC(=O)[C@H](CC2CCCCC2)NC(=O)[C@H](Cc2cnc[nH]2)NC1=O [Compound 1081] ({CH2CO}-[Dap]Y(Carboxymethyl)DWV[Bip]V[Orn][dL]H[Cha]VTCA[Dap][Aun]-OH; thioether N-14) | 0.0285 µM
